Reference: US20200222564A1, “Compound Amphiphilic Peptide Nanomicelle, Preparation and Use Thereof” (Tianjin University, priority 2019, published 2020)

Tested on: CNE-2Z cells
Assay: CCK-8 cytotoxicity in CNE-2Z cells
Type: cell-based
Conditions: 0-100 μg/mL, 24 h in the dark
Experimental: First of all, the designed concentration (0, 20, 40, 60, 80 and 100 μg/mL) solution of nanomicelle and rose bengal were prepared with 1640 medium. CNE-2Z cells were seeded into a 96-well player at a density of 2×10^4 cells per well. Each sample with a certain concentration was added to 5 wells. The cytotoxicity of the pure rose bengal and the nanomicelle solution at different concentrations was compared. After culturing for 48 hours, the cells were grown to 80%, and the medium containing different volumes of nanomicelle and rose bengal solution was added instead of the original medium according to the experimental group setting. After an additional incubation for 24 h at 37° C. in the dark, fresh medium (100 μL) together with CCK-8 (10 μL) was added followed by […] on a microplate reader at a wavelength of 450 nm. Cell viability was calculated according to the formula, with the maximum and minimum of OD values excluded:
Cell Viability=average of (OD−ODblk)/average of (OD0−ODblk)×100%

In the case of `O=C([O-])c1c(Cl)c(Cl)c(Cl)c(Cl)c1-c1c2cc(I)c(=O)c(I)c-2oc2c(I)c([O-])c(I)cc12.[Na+].[Na+]` [Rose Bengal], the “toxicity to CNE-2Z cells” value is reported as “less toxic”.
